This note sets out measurements from ChEMBL document CHEMBL3988442, “University of Dundee, Small-Polar-MMV Screening Library” (2021).

The target of this assay is Polyketide synthase Pks13 (Mycobacterium tuberculosis (strain ATCC 25618 / H37Rv), UniProt I6X8D2). The experiment in a line: Mycobacterium tuberculosis Polyketide synthase 13 Thioesterase (PKS13). Format: functional.

Where “and” joins values, the source holds several entries; their conditions need not be identical. Identical values can stand only once.

Polyketide synthase Pks13, sequence (I6X8D2 whole entry): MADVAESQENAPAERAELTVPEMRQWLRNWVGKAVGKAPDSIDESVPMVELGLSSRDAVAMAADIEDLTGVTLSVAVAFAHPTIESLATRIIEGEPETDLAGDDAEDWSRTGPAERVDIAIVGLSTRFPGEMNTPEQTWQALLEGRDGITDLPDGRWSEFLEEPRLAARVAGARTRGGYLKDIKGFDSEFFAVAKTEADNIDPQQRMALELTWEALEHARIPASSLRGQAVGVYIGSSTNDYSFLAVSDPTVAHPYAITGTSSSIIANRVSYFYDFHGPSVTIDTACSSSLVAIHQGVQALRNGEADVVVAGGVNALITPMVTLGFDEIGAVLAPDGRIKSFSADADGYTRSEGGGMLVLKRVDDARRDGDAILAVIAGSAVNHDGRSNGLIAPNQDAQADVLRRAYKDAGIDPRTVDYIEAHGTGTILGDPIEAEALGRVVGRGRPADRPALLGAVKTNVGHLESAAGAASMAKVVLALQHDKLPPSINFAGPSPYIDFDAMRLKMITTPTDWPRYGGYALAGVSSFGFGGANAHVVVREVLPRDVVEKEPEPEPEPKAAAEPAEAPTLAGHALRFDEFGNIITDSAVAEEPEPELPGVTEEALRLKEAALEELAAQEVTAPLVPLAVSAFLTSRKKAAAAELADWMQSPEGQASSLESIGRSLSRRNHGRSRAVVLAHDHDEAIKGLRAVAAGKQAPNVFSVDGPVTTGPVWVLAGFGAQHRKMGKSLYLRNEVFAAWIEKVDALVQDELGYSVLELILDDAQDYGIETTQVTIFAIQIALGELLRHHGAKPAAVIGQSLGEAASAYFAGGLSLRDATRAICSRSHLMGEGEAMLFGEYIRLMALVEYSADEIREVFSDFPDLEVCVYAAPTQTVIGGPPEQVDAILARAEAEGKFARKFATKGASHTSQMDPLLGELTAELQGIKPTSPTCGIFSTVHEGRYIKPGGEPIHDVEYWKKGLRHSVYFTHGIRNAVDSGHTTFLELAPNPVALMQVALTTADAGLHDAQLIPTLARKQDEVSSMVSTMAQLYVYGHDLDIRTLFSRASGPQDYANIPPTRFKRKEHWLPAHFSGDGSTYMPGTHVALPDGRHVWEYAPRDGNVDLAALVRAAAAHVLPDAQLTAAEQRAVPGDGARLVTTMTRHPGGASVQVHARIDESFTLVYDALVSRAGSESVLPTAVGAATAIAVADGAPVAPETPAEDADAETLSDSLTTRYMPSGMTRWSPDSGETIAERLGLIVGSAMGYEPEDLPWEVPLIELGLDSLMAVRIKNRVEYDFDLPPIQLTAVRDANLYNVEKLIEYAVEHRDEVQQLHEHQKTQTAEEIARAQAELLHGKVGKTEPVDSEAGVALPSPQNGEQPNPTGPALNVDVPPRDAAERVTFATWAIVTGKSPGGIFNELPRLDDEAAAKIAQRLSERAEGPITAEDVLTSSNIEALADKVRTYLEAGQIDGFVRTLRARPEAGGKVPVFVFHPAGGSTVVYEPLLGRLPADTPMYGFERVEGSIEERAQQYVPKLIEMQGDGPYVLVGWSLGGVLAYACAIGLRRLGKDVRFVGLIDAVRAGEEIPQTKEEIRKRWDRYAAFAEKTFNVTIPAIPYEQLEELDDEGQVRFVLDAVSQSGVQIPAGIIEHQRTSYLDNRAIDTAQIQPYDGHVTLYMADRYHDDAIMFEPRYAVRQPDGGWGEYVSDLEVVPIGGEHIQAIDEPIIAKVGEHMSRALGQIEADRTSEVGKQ

The term IC50 denotes the concentration needed to halve the response being measured. Higher therefore signals lower potency. As to `Cc1cccc(OC2CCN(c3nccnc3C#N)CC2)n1`, the concentration for half-maximal inhibition (IC50) is 42.2 µM and 46 µM. With `Cc1cc(C)c2cc(CNCc3cccnc3)c3nn(C)c(=O)n3c2c1` the figure was 59.1 µM; with `c1cnc(N2CCC3(CCCN(CC4CCCCC4)C3)C2)cn1` (stereo not drawn), more than 100 µM; with `CC(C)c1nc(CN(C)C2CCN(CCNS(C)(=O)=O)C2)no1` (stereo not drawn), more than 100 µM. Take `CCOCCCNC(=O)c1cn(C(C)(C)C)c2ncccc12`: the IC50 is more than 100 µM. With `O=C(OCC1CCN(c2ccccc2)C1)c1cscn1` (stereo not drawn) the figure was 29.9 µM and 4.14 µM; with `Cc1noc(CNc2ccc(CC(=O)N3CCSCC3)cc2)n1`, more than 100 µM; with `CN(Cc1ccc(N2CCCCC2)cc1)Cc1noc(C(C)(C)C)n1`, more than 100 µM. With `O=C(c1ccc(-n2ccnc2)cc1)N1CCN(c2cnccn2)CC1` the figure was more than 100 µM; with `O=C(NCc1ccc2c(c1)OCCO2)N1CCC(CO)CC1`, more than 100 µM. With `Cc1ccc(NC(=O)c2nc3c(s2)CCCN3C(=O)C2CC2)cn1` the figure was more than 100 µM; with `CCOCCC(=O)N1CCc2cccc(S(=O)(=O)N3CCOCC3)c2C1`, > 100 µM and 20.4 µM. For the compound `COCc1nc(C(=O)N2CCCC2c2ccc(OC)cc2)cs1` (stereo not drawn), the IC50 was more than 100 µM. With `Cc1ccc(C)c(OC2CCN(C(=O)CNc3ccccc3Cl)CC2)c1` the figure was 10.7 µM and 12.7 µM; with `Cc1ccc(C)c(-n2ncc(C(=O)NCC3COC(C)(C)O3)c2N)c1` (stereo not drawn), more than 100 µM; with `CCC1(C)Cc2ccccc2-c2nc(NCCO)nc(O)c21` (stereo not drawn), 31.8 µM and 28.8 µM. `CCc1nnc(CN2CCOC(Cn3cc(C)cn3)C2)o1` (stereo not drawn) gave an IC50 of more than 100 µM. Under `Cc1ccc2cc(CNCCCN3CCOCC3)c(=O)[nH]c2c1C` stands more than 100 µM; under `CS(=O)(=O)NCc1cc(-c2cc(F)cc(F)c2)nc(N2CC[C@H](O)C2)n1`, more than 100 µM. With `Cc1nc(CNC(=O)N2CCN(c3ccc(Cl)cn3)CC2)sc1C` the figure was 42.5 µM and 31.5 µM. Under `Nc1nccnc1CC1CCCN(Cc2ccnc3ccccc23)C1` (stereo not drawn) stands more than 100 µM; under `Cn1ccnc1C(=O)N1C[C@@H]2CCN(c3cnccn3)C[C@@H]2C1`, more than 100 µM. `Cc1cnn(CC2CCCN2Cc2cc(=O)n3cc(C)ccc3n2)c1` (stereo not drawn): the half-maximal inhibitory concentration (IC50) is > 100 µM and 95.9 µM. With `c1ccc2c(c1)CN(c1ncnc3sc4c(c13)CCNC4)CCO2` the figure was more than 100 µM; with `Cn1cc(C[C@H]2[C@H](N3CCOCC3)CCN2c2ncc(F)cn2)cn1`, more than 100 µM. The compound `CNC(=O)CNC1CC2(CCN(c3ncccn3)CC2)c2ccccc21` (stereo not drawn) showed an IC50 of more than 100 µM.

The compound `CC(C)OCc1ncn2c1CN(Cc1nccs1)CCC2` gave an IC50 of more than 100 µM. Under `CC(NC(=O)N1CCC(CO)CC1)c1csc2ccccc12` (stereo not drawn) stands more than 100 µM; under `CCCNC(=O)CCNc1cncc(-n2nc(C)cc2C)n1`, 28 µM and 22 µM; under `COc1ccc(-c2ccnc3nc(N4CCCCC4)[nH]c(=O)c23)cc1`, 19.6 µM and 3.94 µM. With `CCc1cnc(N2CC[C@H]3[C@@H]2CCC(=O)N3CC2CCOCC2)nc1` the figure was more than 100 µM; with `Cc1nc(-c2ccc(Cl)s2)sc1C(=O)N(C)CC(N)=O`, 30.9 µM and 43.8 µM; with `Cc1n[nH]c(C)c1CCC(=O)NCC1(O)CCN(c2ccccn2)C1` (stereo not drawn), more than 100 µM. With `CS(=O)(=O)CCCSc1n[nH]c(-c2ccc3c(c2)CCC3)n1` the figure was 5.44 µM and 19.5 µM; with `COc1ccccc1N1CCC(CNS(=O)(=O)c2cccs2)C1` (stereo not drawn), 10.3 µM and 4.51 µM; with `O=C(c1ccc(-n2cc(Br)cn2)cc1)N1CCN(c2cnccn2)CC1`, 2.63 µM and 3.37 µM. For `NC(=O)CCSc1ccccc1NCc1ccc(Cl)s1`, the 50% inhibitory concentration (IC50) is 6.92 µM and 6.81 µM. `CC(C)(C)c1nc(CN(CCC2CCCCC2)CC(N)=O)no1` gave a half-maximal inhibitory concentration (IC50) of more than 100 µM. With `CN(C)c1ncnc2c1CCN(C(=O)c1cccnc1)CC2` the figure was more than 100 µM.

Regarding `CC1(NC(=O)Cc2csc(NC(=O)c3ccccc3)n2)CCS(=O)(=O)C1` (stereo not drawn), the concentration for half-maximal inhibition (IC50) is more than 100 µM. With `Cc1n[nH]c(SCC(=O)N2C[C@H]3CC[C@@H]2CN(c2ncccn2)C3)n1` the figure was more than 100 µM; with `CNC(=O)c1cnc(/C=C/c2cc(OC)cc(OC)c2)s1`, 29.1 µM and 11 µM. Under `Cc1cc(S(=O)(=O)Nc2cccc(OC(F)F)c2)sc1C(=O)O` stands 16.4 µM and 3.37 µM; under `N#Cc1cc(C#N)c(SCC(=O)Nc2ccc(F)cc2)nc1N`, 19.3 µM and 21.8 µM. With `NC(=O)CSc1nccc(-c2ccc3c(c2)OCO3)n1` the figure was 20 µM and 18.9 µM; with `Cc1cc(-c2cnn(CCNC(=O)c3snnc3C)c2C2CC2)on1`, more than 100 µM. The compound `CCOC1CC2(CCN(C(=O)Cc3ccccn3)CC2)C1` had an IC50 of more than 100 µM. Under `CC(NC(=O)CN(C)S(C)(=O)=O)c1nnc2n1CCCCC2` (stereo not drawn) stands more than 100 µM; under `CS(=O)(=O)N1CCCC1c1cccc(Cc2ccccc2F)n1` (stereo not drawn), more than 100 µM; under `CC(Nc1cnn(C)c(=O)c1Cl)c1ccc(F)c(F)c1` (stereo not drawn), more than 100 µM. With `CCOCCN1Cc2ncn(C)c2C(COCC2CCOCC2)C1` (stereo not drawn) the figure was more than 100 µM; with `Cc1cc2c(N)nc(=O)n(CC(=O)Nc3ccccc3)c2s1`, more than 100 µM. With `CN(C)C[C@@H]1[C@H]2CN(C(=O)c3cc(=O)[nH]c4ccc(F)cc34)C[C@@H]12` the figure was 98.5 µM and > 100 µM; with `CCN1CC(C(=O)N2CCN(c3nsc4ccccc34)CC2)CCC1=O` (stereo not drawn), 90.7 µM and 73 µM; with `COc1cccc(-c2noc(-c3ccc(NCC(C)C)nc3)n2)c1OC`, 15.7 µM and 26.8 µM.

In the case of `CCc1ccc(C(O)CN2CCN(c3cccc(OC)c3)CC2)cc1` (stereo not drawn), the half-maximal inhibitory concentration (IC50) is 23.2 µM and 27.3 µM. Under `O=C(C1CC1)N1CCc2ccccc2C12CCNCC2` stands more than 100 µM. With `O=C1CC(c2ccc(F)c(F)c2)c2snc(C(=O)O)c2N1` (stereo not drawn) the figure was more than 100 µM; with `COC(=O)c1sc2cccc(F)c2c1CNC(=O)C1CCOC1` (stereo not drawn), more than 100 µM. Under `Cc1ccc(CN2CCCC(c3nn(C)c4nccnc34)C2)s1` (stereo not drawn) stands more than 100 µM. `CC(NC(=O)Nc1cccnc1N1CCCC1)c1nncn1C` (stereo not drawn) showed a half-inhibitory concentration (IC50) of more than 100 µM. Under `CN(C)c1nccc(-c2c[nH][nH]c2=O)n1` stands more than 100 µM.

`O=C1CCCN1Cc1ncn2c1CN(C(=O)NC1CCCC1)CCC2`: the half-inhibitory concentration (IC50) is more than 100 µM.

Regarding `Cc1ncc(CN)c(-c2cn(C)c3ccccc23)n1`, the IC50 is 89.1 µM and > 100 µM. With `Cc1cc(C)n(-c2cncc(NCCNS(C)(=O)=O)n2)n1` the figure was 20.9 µM and 8.18 µM. Under `CCC(=O)NCC(=O)NCC(C)(C)c1cccc(Br)c1` stands more than 100 µM; under `COc1ccc(C2CCCN2C(=O)c2cc3c([nH]c2=O)CCC3)cc1` (stereo not drawn), 31.9 µM and 34.5 µM.

`C[C@H](NC(=O)c1cccc(CCC(C)(C)O)c1)C(N)=O`: the half-maximal inhibitory concentration (IC50) was more than 100 µM. Under `Cn1cc(-c2ccnc(NCC3CCN(Cc4ccccc4)C3)n2)cn1` (stereo not drawn) stands > 100 µM and 60.6 µM.

Turning to `CC(NC(=O)NCC(C)(C)C(N)=O)c1nc(-c2ccccc2)cs1` (stereo not drawn), the IC50 was more than 100 µM.

Compound `CC(C)(C)OCCN1CCCC1c1nc(Cc2ccc(F)cc2)no1` (stereo not drawn) had a 50% inhibitory concentration (IC50) of more than 100 µM.

`Cc1ccc(CNC(=O)NCCCn2nc3ccccn3c2=O)s1` had an IC50 of more than 100 µM. With `COC(=O)C(C)(C)NC(=O)c1cc2sc(N(C)C)nc2s1` the figure was 21.9 µM and 10.8 µM; with `CCc1noc(Cn2c(=O)c3c(C(F)(F)F)cc(C)nc3n2C)n1`, 36 µM and 34.8 µM. Under `CC[C@H](C)[C@H](N)C(=O)Nc1nc(-c2cnc(N(C)C)nc2)cs1` stands more than 100 µM. Regarding `COc1ccc(-c2cc(C[C@@H]3C[C@H](N(C)C)C3(C)C)no2)cc1`, the concentration for half-maximal inhibition (IC50) is 41.5 µM and > 100 µM. In the case of `Cn1ccc(C(=O)NCc2cccc(CN3CCCC3)c2)cc1=O`, the IC50 was more than 100 µM. In the case of `CCN(CC)C(=O)c1nnc2ccc(N3CCOCC3)cc2n1`, the IC50 was 6.1 µM and 15.9 µM. With `COc1ccc2[nH]cc(-c3ccnc(N4CCC(C)CC4)n3)c2c1`, the IC50 was 33.7 µM and 30 µM. Under `CC1(C(=O)NCc2cccnc2Oc2ccc(F)c(F)c2)CCCNC1` (stereo not drawn) stands more than 100 µM. With `Cn1cc(I)c(C(=O)NCCCn2cc(Br)cn2)n1` the figure was 9.34 µM and 48.9 µM. With `CC1=N[C@@]2(CC[C@@H]3CN(S(C)(=O)=O)C[C@@H]32)C(=O)N1CC(C)C` the figure was more than 100 µM; with `Cc1c(C(=O)N2CCOCC2)nnn1-c1ccc2ncccc2c1`, more than 100 µM. In turn, `Cc1cc(C)n(-c2nc(C(=O)NCCN3CCC(C)CC3)cs2)n1` gave an IC50 of more than 100 µM. Consider `CCc1nc2n(n1)CC(NCc1ncc(-c3ccccc3)o1)CC2` (stereo not drawn), for which the half-inhibitory concentration (IC50) was more than 100 µM.

The compound `COc1ccc2nc(C[C@@H]3C[C@@H](C(C)C)[C@H](CN)C=C3C)[nH]c2n1` showed a concentration for half-maximal inhibition (IC50) of more than 100 µM. Under `CC1CCc2nc(O)c(C(=O)NCCCN3CCN(C)CC3)cc2C1` (stereo not drawn) stands 31.6 µM and 37.1 µM; under `Cc1ccc(C(=O)N2CCN(c3ncnc4nc(N)ccc34)CC2)o1`, more than 100 µM.

Consider `Cn1c(NCC(=O)N2CCCC2)c(C#N)c(=O)n(C)c1=O`, for which the half-maximal inhibitory concentration (IC50) is more than 100 µM.

Consider `N#Cc1cccc(N2CCC(CO)(CCCc3ccccc3)CC2)n1`, for which the half-inhibitory concentration (IC50) was > 18.6 µM and 25.5 µM. Under `CN(CC1CCCCC1)C(=O)c1ccc(-n2ncc(C#N)c2N)cc1` stands 40.8 µM and 6.64 µM.

`O=c1[nH]c2cc3c(cc2cc1CN1CCCC1c1ccccn1)OCO3` (stereo not drawn): the IC50 was > 100 µM and 70.3 µM. Under `CCC(CC)C(=O)n1ccn(S(=O)(=O)c2ccc(C)cc2)c1=O` stands 20 µM and 19.7 µM; under `Cc1cc(C)n(-c2cncc(NCCC(=O)NC(C)C)n2)n1`, 24.1 µM and 15.2 µM; under `CN(C)c1ccc(-c2nnc([C@H]3CCN(C4CCCCC4)C3)o2)cc1`, more than 100 µM. The compound `CN(C)CC(=O)N1Cc2nc(C(=O)NCc3ccccc3)oc2C1` showed an IC50 of more than 100 µM. Under `CCC(CNC(=O)COC)Oc1cccc(F)c1` (stereo not drawn) stands more than 100 µM; under `Cc1ccc(-c2ncc(C(=O)NCCNc3ncccn3)s2)c(C)c1`, 12 µM and 14.8 µM. Under `Cc1noc([C@@H]2C[C@H]3OCC[C@H]3N(S(=O)(=O)c3cccnc3)C2)n1` stands more than 100 µM.

In the case of `CN(C)C(=O)c1cn[nH]c1C1(C)CCN(c2ncccn2)CC1`, the IC50 is more than 100 µM. With `Cc1cccc(-c2ccc(C(=O)NCC(C)(C)C(N)=O)c(=O)[nH]2)c1`, the IC50 is 25 µM and 32 µM. With `CCn1cc(-c2cc(C(F)F)n3nc(CC(=O)O)nc3n2)cn1` the figure was 15.7 µM and 16.4 µM. With `CN(C[C@@H]1CCC[C@@H]2CN(c3ncccn3)C[C@@H]21)C1CC1` the figure was more than 100 µM.
